Data taken from a melting point compilation (Tetko et al.; mined from patent text by program, amines drawn as free bases though some values may be those of a salt).

Which melting point does the source give for `COc1ccc(-c2cncc(OC3SCC(OC(C)=O)C(OC(C)=O)C3OC(C)=O)c2)c(C)c1` (stereo not drawn) here?
Its melting point is 283 °C.

For `CCCCc1nnc(SCc2ccc(Cl)cc2)n1Cc1ccc(OC(C(=O)O)c2ccccc2Cl)cc1` (stereo not drawn), which melting point is on record?
Its melting point is 100 to 102 °C.

Which melting point does the source give for `CCn1ncc2c(Cl)c3cc(SC)ccc3nc21` here?
Its melting point is 120 to 121 °C.

For `O=C(O)CCc1cccc(CCc2nc(-c3ccccc3)c(-c3ccccc3)o2)c1`, which melting point is on record?
The melting point was 119 to 120 °C.

For `CCCCCCCN(Cc1ccc(C(C)(C)C)cc1)C(Nc1ccc(Cl)cc1)=C1C(=O)COC1=O`, which melting point is on record?
The melting point was 101 to 104 °C.

With `O=C(c1cnc2ccccc2c1)C1CCN(C(=O)c2ccccc2)CC1` as the molecule, how does the melting point read?
Its melting point is 170 °C.

With `COc1ccnc(N2CCN(C(=O)c3cc4ccccc4[nH]3)CC2)n1` as the molecule, how does the melting point read?
The melting point was 202 to 203 °C.

With `CCOC(=O)C1=C(N)NC2=C(C(=O)CCC2)C1c1nccc2ccccc12` (stereo not drawn) as the molecule, how does the melting point read?
The melting point was 272 °C.

Which melting point does the source give for `O=C(Nc1ccc(N2CCC(NC[C@H](O)COc3cccc4[nH]c5ccccc5c34)CC2)cc1)c1ccc2c(c1)OCO2` here?
Its melting point is 217 to 223 °C.

Which melting point does the source give for `Cc1cc(-c2ccc(OC3SCC(O)C(O)C3O)cn2)ccn1` (stereo not drawn) here?
The melting point was 214 °C.

Which melting point does the source give for `CC(=O)NNc1c(C)cnc2c(NC(=O)c3c(Cl)cccc3Cl)ccc(C)c12` here?
Its melting point is 234 to 238 °C.

For `O=C(Nc1ccc(C(F)(F)F)cc1)Nc1ccc(S(=O)(=O)NCCN2CCOCC2)cc1`, which melting point is on record?
Its melting point is 62 to 65 °C.

With `O=C(O)C(=O)c1ccc(OCC(=O)N2CCc3ccccc3C2)cc1` as the molecule, how does the melting point read?
The melting point was 218 to 220 °C.

For `Cc1cccc(S(=O)(=O)Cc2c(C(F)(F)F)n[nH]c2O)c1`, which melting point is on record?
Its melting point is 130 to 133 °C.

For `COc1ccccc1OCC1SCCN1C(=O)CS` (stereo not drawn), which melting point is on record?
The melting point was 86 to 87 °C.

With `O=C(O)c1ccc(-c2nnc(-c3ccc(C(F)(F)F)cc3)o2)cc1` as the molecule, how does the melting point read?
Its melting point is greater than 300 °C.

For `COc1cc(C(=O)N(C(C)C)C2CCCCC2)ccc1Cn1c(C)nc2cccnc21`, which melting point is on record?
The melting point was 210 to 212 °C.

Which melting point does the source give for `CC(C)(O)c1ccc(CC(=O)Nc2cccnc2Oc2cccc(C#N)c2)cc1` here?
Its melting point is 97 to 99 °C.

For `N#CC1=C(C2CC2)Nc2n[nH]cc2C1c1cccc(C#N)c1Br` (stereo not drawn), which melting point is on record?
The melting point was greater than 250 °C.

Which melting point does the source give for `O=C(Nc1ccc(CCN2CCCCC2)cc1)C1=Cc2cc(-c3ccccc3)ccc2CC1` here?
The melting point was 157 to 159 °C.

Which melting point does the source give for `COc1ccc(S(=O)(=O)NCCc2ccc(OCC(=O)O)cc2)cc1` here?
Its melting point is 82 to 83 °C.

With `OCc1ccc(-c2csc(-c3cn([C@H]4CN5CCC4CC5)nn3)c2)cc1` as the molecule, how does the melting point read?
Its melting point is 196 °C.

Which melting point does the source give for `COC(CBr)(CCCC(=O)NN)OC` here?
Its melting point is 58 to 60 °C.

For `COc1ccc(C(=O)CCCCCN2CCC(CNC(=O)c3cc(Cl)c(N)cc3OC)CC2)cc1F`, which melting point is on record?
Its melting point is 112 to 113 °C.

With `O=C(C1=C(O)CCS1)c1nnn(Cc2ccccc2)c1Cl` as the molecule, how does the melting point read?
Its melting point is 118 to 120 °C.

For `CCCNC(=O)C1(CC=Cc2ccc([N+](=O)[O-])cc2)c2ccccc2-c2ccccc21`, which melting point is on record?
The melting point was 143 to 146 °C.

With `CCCOc1ccc2c(c1)C(c1ccc(OC)cc1OCC(=O)O)C(CN)C2c1ccc2c(c1)OCO2` (stereo not drawn) as the molecule, how does the melting point read?
The melting point was 237 to 242 °C.

For `O=S1c2ccccc2N(CCCCl)c2ccccc21`, which melting point is on record?
The melting point was 171 to 173 °C.

Which melting point does the source give for `CSc1nnc2c3cnn(C)c3ncn12` here?
The melting point was 204 to 206 °C.

Which melting point does the source give for `CN(C)CCCN1C(=O)c2cc(Cl)c(S(N)(=O)=O)cc2C1=O` here?
The melting point was 192 to 194 °C.

For `O=S(=O)(Cc1n[nH]c(-c2ccccc2)n1)c1ccccc1`, which melting point is on record?
Its melting point is 141 to 144 °C.

Which melting point does the source give for `COc1cc(Cl)c(OC)cc1C` here?
The melting point was 90 to 92 °C.

Which melting point does the source give for `COc1cc(C2CCN(C(=O)CN)CC2)ccc1Nc1ncc2ccc(-c3ccccc3N(C)S(C)(=O)=O)n2n1` here?
Its melting point is 106 to 119 °C.

With `Cn1ncc2c1-c1c(Oc3ccccc3)sc(C(=O)O)c1CC2` as the molecule, how does the melting point read?
The melting point was 259 to 261 °C.

For `Cn1nc(C#N)c(Nc2ccc(C(F)(F)F)cc2[N+](=O)[O-])n1`, which melting point is on record?
The melting point was 116 to 117 °C.

With `Cn1c(=O)oc2cc3c(cc21)C1(CO3)C(=O)N(CC2CCCO2)c2ccccc21` (stereo not drawn) as the molecule, how does the melting point read?
The melting point was greater than 250 °C.

With `COc1ccc(NC(=O)c2ccccc2Cl)cc1` as the molecule, how does the melting point read?
Its melting point is 113 to 115 °C.

Which melting point does the source give for `CCCCCCCCCCCCCCCc1cc(=O)c2c(O)cc(O)cc2o1` here?
Its melting point is 108 °C.

For `OCCCn1c(C2CCCCC2)nc2ccc(Cl)cc21`, which melting point is on record?
Its melting point is 120 °C.

Which melting point does the source give for `COc1cccc(C(=O)NCCNC(=O)OC(C)(C)C)n1` here?
The melting point was 104 to 105 °C.

Which melting point does the source give for `N#Cc1nn(-c2c(Cl)cc(C(F)(F)F)cc2Cl)cc1C1CC(=O)C1` here?
The melting point was 127 °C.

With `COc1ccc(S(=O)(=O)N2C(=O)C(OC(=O)Oc3ccccc3)(c3ccccc3Cl)c3cc(Cl)c(OC)cc32)c(OC)c1` (stereo not drawn) as the molecule, how does the melting point read?
Its melting point is 162 to 163 °C.

Which melting point does the source give for `COC(=O)C1C(=O)N(C)C(=O)c2ccc(Cl)cc21` (stereo not drawn) here?
Its melting point is 166 to 167 °C.

Which melting point does the source give for `Brc1ccsc1Cc1c[nH]cn1` here?
The melting point was 212 to 214 °C.

For `CCOC(=O)c1cc2sc(C3CCC(c4c(F)cccc4F)=N3)cc2s1` (stereo not drawn), which melting point is on record?
Its melting point is 107 °C.

With `COc1ccc2c(c1)Cc1cc(CCC(C)=O)ccc1-2` as the molecule, how does the melting point read?
The melting point was 100 to 101 °C.

With `CC(C)(C)OC(=O)C[C@H](NC(=O)CNC(=O)c1csc(NC(=O)NCc2ccccc2)n1)C(=O)OC(C)(C)C` as the molecule, how does the melting point read?
Its melting point is 111 to 114 °C.

With `CCNc1nc(NS(=O)(=O)c2ccc(N)cc2)cc(N2CCC2)n1` as the molecule, how does the melting point read?
Its melting point is 292 to 293 °C.

For `O=C(CCCCl)c1ccc2cc(O)c(O)cc2c1`, which melting point is on record?
The melting point was 129 to 135 °C.

For `C[Si](C)(C)CCOc1ccc(N)cn1`, which melting point is on record?
The melting point was 59 to 61 °C.

With `O=c1[nH]c2cc(Cl)ccc2c(O)c1-c1cccc(S(=O)(=O)c2ccccc2)c1` as the molecule, how does the melting point read?
Its melting point is 260 °C.

With `O=C1N=NC(=O)c2c1[nH]c1cc(Cl)cc(Cl)c21` as the molecule, how does the melting point read?
The melting point was greater than 300 °C.

Which melting point does the source give for `COc1cccc(OC)c1-c1cc(C(=O)NC2(C(=O)O)C3CC4CC(C3)CC2C4)nn1-c1ccc(N)cc1C` (stereo not drawn) here?
The melting point was 205 °C.

With `COc1cc(CSc2ccc(O)cc2)cc(OC)c1O` as the molecule, how does the melting point read?
Its melting point is 128 °C.

For `CCCCC(=O)OCc1cnc(C)c(O)c1`, which melting point is on record?
The melting point was 114 to 115 °C.

With `Cc1noc2nc(-c3ccccc3)cc(Cl)c12` as the molecule, how does the melting point read?
Its melting point is 130 to 131 °C.

For `CC1(C)CNc2cc(Br)ccc21`, which melting point is on record?
Its melting point is 100 to 102 °C.

With `C1=C(CCc2ccco2)CCN(Cc2c[nH]c3ncccc23)C1` as the molecule, how does the melting point read?
The melting point was 105 °C.

Which melting point does the source give for `COc1ccc(Br)cc1C(=O)NCCc1ccc(CCC(=O)O)cc1` here?
The melting point was 120 to 121 °C.

With `Cc1c(OCC#N)cc2c(c1Cl)C(=O)C1(CCCC1)C2=O` as the molecule, how does the melting point read?
The melting point was 137 to 139 °C.

With `CCOC(=O)c1c(S(=O)(=O)Cc2nccn2C)nc2cc(OC)c(OC)cc2c1-c1ccc(OC)c(OC)c1` as the molecule, how does the melting point read?
Its melting point is 132 to 133 °C.

Which melting point does the source give for `CCn1ncc2c3c4c(nc21)CCc1ccccc1-c4nn3C` here?
The melting point was 140 to 141 °C.

With `O=C(O)CCSC(SCCC(=O)O)c1cccc(OCc2ccc3ccccc3n2)c1` as the molecule, how does the melting point read?
Its melting point is 150 to 152 °C.

With `CC(C)CCCC(=S)SCC(C)C` as the molecule, how does the melting point read?
Its melting point is 43 to 44 °C.

For `Cc1ccc(Cc2cnc(NCCCCNc3ncccc3Cl)[nH]c2=O)cn1`, which melting point is on record?
The melting point was 180 to 182 °C.

For `CCNC(=O)ON(C(C)=O)C(=O)NCC`, which melting point is on record?
Its melting point is 84 to 86 °C.

Which melting point does the source give for `CCCc1nn(C)c2c(OCCOc3ccc(CC(OCC)C(=O)O)cc3)nc(C)nc12` (stereo not drawn) here?
The melting point was 142 to 144 °C.

Which melting point does the source give for `COc1cc(C=S2C=CN=C2N)c([N+](=O)[O-])cc1OC` (stereo not drawn) here?
The melting point was 125 to 130 °C.

Which melting point does the source give for `Cn1c(=Nc2ccccc2)sc2ncccc2c1=O` here?
Its melting point is 189 to 190 °C.

For `COC(=O)c1cc(OCc2ccc3ccccc3n2)nn1C(C)C`, which melting point is on record?
Its melting point is 64 to 65 °C.

With `O=c1nc(-c2ccc(O)cc2)oc2ccccc12` as the molecule, how does the melting point read?
Its melting point is 273 to 275 °C.

Which melting point does the source give for `COC(=O)c1cc2cc(C(=O)c3cccc(CC#N)c3)sc2s1` here?
The melting point was 184 °C.

With `Nc1ccc(Br)cc1CC(F)(F)F` as the molecule, how does the melting point read?
Its melting point is 100 to 101 °C.
